“And” between values parts separate entries of the source, which are not always exact repeats. Equal entries are not always repeated.
Key:
[1] = system: Akt Thr308 phosphorylation; assay: Ex vivo immunoblotting of phospho-Akt (Thr308) in ADP-stimulated PRP of treated rats; design: species or system rat; conditions: clopidogrel group, ex vivo; Figure 8D
Procedure: (§1) Male SD rats were randomly divided into 5 groups with 6 rats in each group. […] Sixty minutes after the last sample treatment, blood was drawn from the abdominal aorta of rats into the siliconized vacutainers containing 1:9 (v/v) 3.8% sodium citrate. The collected blood was centrifuged at 100 × g for 10 min at room temperature to obtain PRP. […] The platelet counts of PRP were adjusted to 4×10^8 cells/mL using PPP. PRP was incubated for 5 min at 37°C and then stimulated by ADP (5 μM). The maximum platelet aggregation rate was determined as mentioned above.
(§2) For in vitro platelet aggregation, aliquots of washed platelets were preincubated with vehicle or various concentrations of naringenin for 5 min and stimulated with ADP (10 μmol/L) under stirring at 37°C for 5 min. For ex vivo platelet aggregation, PRP was incubated at 37°C for 5 min and stimulated with ADP (5 μmol/L) under stirring at 37 °C. The platelet aggregation was terminated by adding ethylenediaminetetraacetic acid (EDTA; 10 mM). Total protein was prepared using RIPA lysis buffer and protein content was determined by bicinchoninic acid (BCA) protein assay kit. Equal amounts of platelet proteins (30 μg) were separated on 10% SDS polyacrylamide gel electrophoresis (SDS-PAGE) and then transferred to poly vinylidene difluoride (PVDF) membranes and subjected to western blot. Blots were blocked with TBS-Tween 20 containing 5% BSA and probed with primary antibodies diluted in blocking solution at 4°C overnight followed by incubation with the corresponding HRP secondary antibodies. The protein bands were visualized using enhanced chemiluminescence (ECL).
(§3) Blood was collected and PRP was obtained after the last treatment. Platelet aggregation was induced by ADP (5 μmol/L) (A). Data are expressed as means ± SD (n = 6). After ADP stimulation, platelet proteins were then extracted and analyzed by immunoblotting using PI3Kp110β antibody (B) and phospho-specific antibodies such as Akt^Ser473 (C), Akt^Thr308 (D) and ERK1/2^Thr202/Tyr204 (E). Total level of GAPDH was measured on each sample as a loading control. The blots shown are representative of three separate experiments. The relative protein expression levels were quantified by ImageJ 1.47v software. The level of relative protein expression obtained with vehicle control was taken as 1. R represents the level of relative protein expression in resting platelets. Data are expressed as means ± SD (n = 3). *p < 0.05, **p < 0.01, ***p < 0.001 compared with the vehicle control group (Con).
(§4) To further investigate the antiplatelet mechanisms of naringenin ex vivo, several signaling molecules such as PI3Kp110β, Akt and ERK were detected. After oral administration of naringenin (200, 400, and 800 mg/kg) to rats for 7 days, rat PRP was prepared and stimulated by ADP (5 μmol/L), and platelets were lysed to determine protein phosphorylation levels using western blot.

tail bleeding = conditions: mouse, in vivo, po, 11.375 mg/kg
Procedure: Sixty minutes after the last administration, mice were anaesthetized with 1% pentobarbital sodium salt and placed on a 37°C heating pad. The tail was transected at a site 3 mm proximal to the tip and immediately immersed into saline kept at 37°C. The time to bleeding cessation (defined as no bleeding for 30 s) was measured. When the bleeding time lasted longer than 10 min, the bleeding was stopped, and the bleeding time was recorded as 10 min.

[2] = system: Akt Ser473 phosphorylation; assay: Ex vivo immunoblotting of phospho-Akt (Ser473) in ADP-stimulated PRP of treated rats; design: species or system rat; conditions: clopidogrel group, ex vivo; Figure 8C
Procedure: as §1, §2, §3, §4

[3] = system: carotid arterial thrombus; assay: FeCl3-induced carotid arterial thrombus model in rats; type: in vivo, rat; conditions: oral 7.875 mg/kg for 7 days
Procedure: To determine the effects of naringenin on thrombogenesis, a FeCl3-induced carotid arterial thrombus model was performed as reported previously with some modifications ([Eckly et al., 2011]). […] The rats were anaesthetized using 1% pentobarbital sodium salt and fixed supinely after the last administration. The left carotid artery was exposed and thrombosis was induced by applying a Whatman filter paper (5 mm × 1 mm) saturated with 10% (w/v) FeCl3 on the top of the left carotid artery for 5 min. […] Time to occlusion of the carotid artery was defined as a blood flow of 0 ml/min for 3 min. […] At the end of the experiment, the left carotid artery was dissected. A haematoxylin and eosin stain was performed on the artery.

PI3Kp110β = assay: Ex vivo immunoblotting of PI3Kp110β in ADP-stimulated PRP of treated rats; design: species or system rat; conditions: clopidogrel group, ex vivo; Figure 8B
Procedure: as §1, §2, §3, §4

[4] = system: Akt Ser473 phosphorylation; assay: Immunoblotting of phospho-Akt (Ser473) in ADP-stimulated washed platelets; type: cell-based, rat; conditions: Figure 5B: ADP 10 μM, LY294002 5 μM alone, single replicates
Procedure: as §2
FIGURE 4 Naringenin inhibits PI3K-mediated signaling in ADP-induced platelets. Washed rat platelets were preincubated without or with naringenin at 37°C for 5 min, and then stimulated with ADP (10 μmol/L) under stirring for 5 min. Platelet proteins were then extracted and analyzed by immunoblotting using PI3Kp110β antibody (A) and phospho-specific antibodies such as Akt^Ser473 (B), Akt^Thr308 (C), ERK1/2^Thr202/Tyr204 (D) and GSK3β^Ser9 (E). Total level of GAPDH was measured on each sample as a loading control. The blots shown are representative of three separate experiments. The relative protein expression levels were quantified by ImageJ 1.47v software. The level of relative protein expression obtained with vehicle control (0 μM) was taken as 1. R represents the level of relative protein expression in resting platelets. Data are expressed as means ± SD (n = 3). *p < 0.05, **p < 0.01, ***p < 0.001 compared with the vehicle control group.
FIGURE 5 Effects of naringenin combined with PI3K pan inhibitor LY294002 on platelet aggregation and Akt phosphorylation. Washed rat platelets were preincubated with naringenin (200 μmol/L) alone, the PI3K pan inhibitor LY294002 (5 μmol/L) alone or both for 5 min prior to ADP (10 μmol/L) activation. After stimulation with ADP, platelet aggregation was quantified and expressed as a percentage (A). Data are expressed as means ± SD (n = 6). ***p < 0.001 compared with the ADP-treated group, ^### p < 0.001 compared with naringenin alone or LY294002 alone. Platelet proteins were then extracted and specific antibodies were used to measure the level of total and phosphorylated Akt (B). The blots shown are representative of three separate experiments. The relative protein expression levels were quantified by ImageJ 1.47v software. The level of phosphorylation obtained in the ADP-treated group was taken as 1. Data are expressed as means ± SD (n = 3). ***p < 0.001 compared with the ADP-treated group, ^### p < 0.001 compared with naringenin alone or LY294002 alone.

washed rat platelets = assay: ADP (10 μM)-induced aggregation of washed rat platelets; type: cell-based; conditions: Figure 5A: washed platelets, ADP 10 μM, LY294002 5 μM alone; single replicates

Row | Structure (SMILES) | p-Akt Thr308 / t-Akt (Fold to Control) [1] | p-Akt Thr308 / t-Akt (raw data) [1] | effect on tail bleeding time (tail bleeding) | p-Akt Ser473 / t-Akt (Fold to Control) [2] | p-Akt Ser473 / t-Akt (raw data) [2] | vessel occlusion time of rats [3] | Occlusion time ([3]; 10% FeCl3, single animals, no occlusion within 20 min recorded as 20 min, 7.875 mg/kg) | PI3Kp110β / GAPDH (Fold to Control) (PI3Kp110β) | PI3Kp110β / GAPDH (raw data) (PI3Kp110β) | p-Akt Ser473 / t-Akt ([4]; raw data) | p-Akt Ser473 / t-Akt (Fold to ADP only) [4] | Aggregation (%) (washed rat platelets)
1 | COC(=O)[C@H](c1ccccc1Cl)N1CCc2sccc2C1 [Clopidogrel, clopidogrel, reference compound] | 0.3303 and 0.3457 and 0.2827 | 0.2780 and 0.2909 and 0.2379 | markedly extended | 0.1574 and 0.1140 and 0.1683 | 0.1750 and 0.1267 and 0.1870 | considerably delayed | 18.3 min and 20.0 min | 0.8304 and 0.8095 and 1.1247 | 0.4069 and 0.3966 and 0.5511 |  |  | 
2 | O=c1cc(N2CCOCC2)oc2c(-c3ccccc3)cccc12 [LY294002, reference compound] |  |  |  |  |  |  |  |  |  | 0.3729 and 0.2624 and 0.3579 | 0.4284 Fold to ADP only and 0.3015 Fold to ADP only and 0.4113 Fold to ADP only | 47.5% and 35.4% and 37.3% and 29.8% and 45.4% and 28.0%
